Reference: patent US8088819B2, “Derivatives of substituted 3-phenyl-1-(phenylthienyl)propan-1-ones and of 3-phenyl-1-(phenylfuranyl) propan-1-ones, preparation and use” (priority 2006, dated 2012)

Columns and labels:
[1] = system: target genes of the PPARs; experiment: Expression of PPARδ target genes in skeletal muscle of the C57Bl6 mouse (compound 2), quantitative RT-PCR; type: in vivo; conditions: C57Bl6 mice; 50 mpk; 14 days
Description: The PPARδ agonistic properties of the molecules according to the invention previously measured in vitro should be reflected at the level of the skeletal muscle in an overexpression of the target genes directly under the control of the PPARδ receptor: the genes that were investigated in this experiment are the genes coding for UCP2 (uncoupling protein 2, mitochondrial transporter involved in thermoregulation) and PDK4 (pyruvate dehydrogenase kinase isoform 4, enzyme of carbohydrate metabolism).
Female C57Bl6 mice were kept under a cycle of light and darkness of 12/12 hours at a constant temperature of 20±3° C. After acclimation for one week, the mice were weighed and put into groups of 6 animals selected so that the distribution of their body weight, of their plasma lipid levels and of total cholesterol determined for the first time before the experiment, is uniform. […]
1 μg of total RNA (quantified on the basis of the spectrophotometer reading) was then reverse-transcribed to complementary DNA by reaction for 1 hour at 37° C. in a total volume of 30 μl containing buffer 1× (Invitrogen), 1.5 mM of DTT, 0.18 mM of dNTPs (Promega), 200 ng of pdN6 (Amersham), 30 U of RNase inhibitor (Promega) and 1 μl of MMLV-RT (Invitrogen). […]
The amount of fluorescence emitted is directly proportional to the amount of complementary DNA present at the start of the reaction and amplified during PCR. […]

C57Bl6 mouse = experiment: Plasma lipid assays in the C57Bl6 mouse, compound 2 at dose effect; type: in vivo
Description: The effect of compound 2, administered at dose effect, is evaluated in vivo in the C57Bl6 mouse after 14 days of treatment by the oral route. At the end of the treatment, the antilipemic effect of compound 2 is evaluated by measuring the plasma levels of total cholesterol, of HDL-cholesterol, of triglycerides and of free fatty acids.
Female C57Bl6 mice were kept under a cycle of light and darkness of 12/12 hours at a constant temperature of 20±3° C. After acclimation for one week, the mice were weighed and put into groups of 6 animals selected so that the distribution of their body weight, of their plasma lipid levels and of total cholesterol determined for the first time before the experiment, is uniform. The test compounds were suspended in carboxymethylcellulose (Sigma C4888) and administered by intragastric force feeding, at a rate of once per day for 14 days at the chosen dose. The animals had free access to water and to food (standard diet). At the end of the experiment, the animals were anesthetized after fasting for 4 hours. A blood sample was taken using anticoagulant (EDTA), then the mice were weighed and euthanased. The plasma was separated by centrifugation at 3000 rev/min for 20 minutes, and the samples were stored at +4° C.
Plasma concentrations of total cholesterol and of triglycerides were measured by enzyme assays (bioMérieux-Lyon-France) following the supplier's recommendations.
Low-density lipoproteins (VLDL and LDL) were precipitated with phosphotungstate. The precipitate was removed by centrifugation. The HDL-cholesterol present in the supernatant was quantified by enzyme assays (bioMérieux-Lyon-France) following the supplier's recommendations.
Plasma concentrations of free fatty acids were measured by enzyme assays (WACO chemicals) following the supplier's recommendations.

hPPARdelta = target: T1, hPPARdelta (Homo sapiens, UniProt Q03181); experiment: PPAR activation: Gal4-hPPARδ chimera luciferase transactivation in COS-7 cells, Method 2; type: cell-based; conditions: COS-7, 24 h
T1 construct: expressed in transfected cells; host or cells: COS-7 (monkey kidney fibroblasts)
T1 sequence (Q03181 211-439 limits assumed): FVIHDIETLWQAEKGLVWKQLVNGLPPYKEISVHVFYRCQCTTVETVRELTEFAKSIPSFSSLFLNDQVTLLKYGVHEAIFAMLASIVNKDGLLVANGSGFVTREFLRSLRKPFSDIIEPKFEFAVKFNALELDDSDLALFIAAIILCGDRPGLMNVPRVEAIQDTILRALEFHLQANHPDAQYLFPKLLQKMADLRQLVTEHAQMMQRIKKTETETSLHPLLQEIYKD
How it was run: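 COS-7 cells were transfected with Gal4-PPAR LBD chimera plus Gal4(RE)_TkpGL3 luciferase reporter (1/10) and seeded serum-free for 4 h. Compounds at 10^−5 to 100 μm were applied for 24 h at 37° C in 1% lipid-free synthetic serum. Luciferase was read after lysis, and EC50 derived.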

EC50 (hPPARdelta; 1% Ultroser) [nM]	Emax (hPPARdelta; maximum percentage response relative to the reference GW501516, read-out: hPPARdelta % max) [%]	Compound	expression of the gene coding for PDK4 in skeletal muscle [1]	expression of the gene coding for UCP2 in skeletal muscle [1]	lipid profile (C57Bl6 mouse; C57Bl6 mice treated for 14 days)	plasma triglyceride levels (C57Bl6 mouse; C57Bl6 mouse, 14 days oral, 1, 5, 10 and 50 mpk, significant effect at 50 mpk)	plasma total cholesterol levels (C57Bl6 mouse; C57Bl6 mouse, 14 days oral, at 5 and 50 mpk (tested 1, 5, 10 and 50 mpk))	plasma HDL-cholesterol levels (C57Bl6 mouse; C57Bl6 mouse, 14 days oral, dose-dependent manner starting from 1 mpk)	plasma levels of free fatty acids (C57Bl6 mouse; C57Bl6 mouse, 14 days oral, starting from 10 mpk)
–	–	CC(C)(Oc1ccc(CCC(=O)c2ccc(-c3ccc(C(F)(F)F)cc3)s2)c(Cl)c1Cl)C(=O)O [Compound 2, 2-(2,3-dichloro-4-(3-oxo-3-(5-(4-(trifluoromethyl)phenyl)thien-2-yl)propyl)phenoxy)-2-methylpropanoic acid]	significant increase	significant increase	improves	dose-dependent decrease	significantly increased	significantly increased	lowered significantly
30	92	CC(C)(Oc1ccc(CCC(OCc2ccccc2)c2ccc(-c3ccc(C(F)(F)F)cc3)s2)c(Cl)c1Cl)C(=O)O (stereo not drawn) [Compound 7, 2-(4-(3-(benzyloxy)-3-(5-(4-(trifluoromethyl)phenyl)thien-2-yl)propyl)-2,3-dichlorophenoxy)-2-methylpropanoic acid]	–	–	–	–	–	–	–
